Experimental data as given in patent US20200069664A1, “METHODS FOR TREATING INFECTION” (Salix Pharmaceuticals, Ltd, priority 2010, published 2020).
“Also recorded” adds a separate entry of the source. Like-named read-outs stand apart in the source and are kept apart here.

Experiments:
EAEC strain O42 = assay type: cell-based, E. coli
S. sonnei = S. sonnei adherence and internalization in antibiotic-pretreated HeLa cells; assay type: cell-based; conditions: vs other treatment groups
ETEC strains = assay: Isolate viability after rifaximin exposure, ETEC; assay type: cell-based, E coli
EAEC isolates = assay: MMP-9 detection by gelatin zymography in EAEC isolates after rifaximin exposure; assay type: cell-based, E coli
Procedure: Expression of matrix metalloproteinase-9 (MMP-9) was analyzed using gelatin zymography in all viable EAEC and S. sonnei isolates growing on MacConkey agar. Isolates were suspended in 1 mL of 0.1 M phosphate buffered saline (pH 7.2) and centrifuged at 1000 g for 10 minutes at 4° C. The supernatant was subjected to gelatin zymography to detect MMP-9 activity using a modified Heussen and Dowdle protocol (9). In summary, the supernatant was diluted 1:2 in a sample buffer (125 mM Tris-HCl, pH 6.8, 20% glycerol, 4% sodium dodecyl sulfate, 0.02% bromphenol blue), and 20 μL was loaded on to a 10% SDS-PAGE gel containing 1 mg/mL gelatin. Prestained standard proteins were used as molecular weight markers. After electrophoresis, gels were rinsed with incubation buffer (2.5% triton X-100, 50 mM Tris-HCl, pH 7.4, 0.02% Brij 35, 10 mM CaCl2, 2 μM ZnCl2) for 1 hour at room temperature to remove SDS. Gels were then incubated overnight at 37° C. and subsequently stained with Coomassie brilliant blue R-250 (Thermo Fisher Scientific, Inc, Rockford, Ill.). […] Matrix metalloproteinase-9 was identified among all gelatinolytic proteins by size.

EAEC strains = assay: HCT-8 cell culture assay for IL-8 release after infection with rifaximin-exposed EAEC; assay type: cell-based, E coli
Procedure: The human intestinal adenocarcinoma cell line, HCT-8, was used to study inflammatory modulators as previously published (Huang, 2004 #15). Monolayers of HCT-8 cells (ATCC CCL-244; American Type Culture Collection, Rockville, Md.) were grown in 24-well culture plates (Corning Costar, Corning, N.Y.) in an RPMI 1640 medium (Sigma-Aldrich Co, St Louis, Mo.) supplemented with 100 U/mL of penicillin, 100 μg/mL of streptomycin, and 0.25 μg/mL of amphotericin B. They were maintained in a medium supplemented with 10% fetal bovine serum (HyClone, Logan, Utah) and grown until approximately 4×10^5 cells/well confluence.
HCT-8 cells were infected with EAEC strains recovered from MacConkey agar in triplicate at a 100:1 ratio in an antibiotic- and serum-free RPMI 1640 medium. Cells were incubated for 3 hours in a humidified chamber at 37° C. in an atmosphere containing 5% CO2, after which supernatants were collected. The supernatant concentration of IL-8 in each well was determined by using a commercially available enzyme-linked immunosorbent assay kit for human IL-8 (R&D Systems, Minneapolis, Minn.). All samples were tested twice, and the average value was reported.

EAEC = assay: MIC50 previously established for EAEC; assay type: cell-based, E. coli; conditions: previously established in our laboratory
C difficile isolates [1] = conditions: cited from earlier work
C difficile isolates [2] = conditions: 201 C difficile isolates, Canada, cited from earlier work
[3] = 24 h pretreatment with 64 mg (sic; FIG. 2: 64 μg/ml)
[4] = 110 C difficile isolates, 1983 to 2004

(2S,16Z,18E,20S,21S ,22R, 23R,24R,255,265,275,28E)-5,6,21,23,25 Pentahydroxy-27-methoxy-2,4,11,16,20,22,24,26-octamethyl-2,7-(epoxypentadeca-(1,11,13) trienimino) benzofuro (4,5-e) pyrido(1,2,-a) benzimidazole-1,15(2H)-dione,25-acetate [Rifaximin]
EAEC adherence to pretreated HEp-2 cells, quantified by CFU (EAEC strain O42): significantly lower; also recorded: reduced EAEC adherence
EAEC adherence to A549 cells (EAEC strain O42; [3]): significantly reduced
EAEC adherence to HCT-8 cells (EAEC strain O42; [3]): not significant
EAEC adherence to HEp-2 cells (EAEC strain O42; [3]): significantly reduced
EAEC adherence to HeLa cells (EAEC strain O42; [3]): significantly reduced
EAEC O42 adherence to pretreated HEp-2 cells (microscopy, stacked-brick pattern) (EAEC strain O42; HEp-2 cells pretreated 24 h, washed, EAEC 3 h, Wright-Giemsa staining): greatly reduced
EAEC bacterial counts in the supernatants (viability) (EAEC strain O42; after 3 h incubation with pretreated HEp-2 cells): No differences; also recorded: without affecting EAEC viability
S. sonnei attachment (S. sonnei): no effect
S. sonnei internalization (S. sonnei): no effect
ETEC viability (ETEC strains; rifaximin 8 mg/L for 24 hours): viable
ETEC viability (ETEC strains; rifaximin 64 mg/L for 18 hours): No ETEC isolates were viable; also recorded: not viable
ETEC viability (ETEC strains; rifaximin 8, 32, and 64 mg/L for 4 and 8 hours): viable
ETEC viability (ETEC strains; rifaximin 8 and 32 mg/L for 18 hours): viable
ETEC viability (ETEC strains; rifaximin 32 and 64 mg/L for 24 hours): No ETEC isolates were viable; also recorded: not viable
MMP-9 expression by EAEC isolates (EAEC isolates; 18-hour time point (rifaximin 8 mg/L)): one EAEC isolate produced MMP-9, but the other isolate did not
MMP-9 expression by EAEC isolates (EAEC isolates; rifaximin 8 mg/L for 4 and 8 hours): expressed MMP-9
MMP-9 expression by EAEC isolates (EAEC isolates; rifaximin 8 mg/L for 24 hours): undetectable
MMP-9 expression by EAEC isolates (EAEC isolates; rifaximin 32 or 64 mg/L for 4, 8, or 18 hours): undetectable
IL-8 production from HCT-8 cells elicited by rifaximin-exposed EAEC (EAEC strains; all other time points and rifaximin concentrations): either undetected following HCT-8 infection with EAEC strains, or EAEC strains were not viable
IL-8 production from HCT-8 cells elicited by rifaximin-exposed EAEC (EAEC strains; rifaximin 64 mg/L for 4 hours): caused IL-8 production
IL-8 production from HCT-8 cells elicited by rifaximin-exposed EAEC (EAEC strains; rifaximin 8 or 32 mg/L for 4 or 8 hours): elicited production of IL-8
IL-8 production from HCT-8 cells elicited by rifaximin-exposed EAEC (EAEC strains; viable isolates, rifaximin 8, 32, or 64 mg/L for 18 hours or 8 mg/L for 24 hours): did not elicit IL-8 production
MIC50 for EAEC (EAEC): 64 µg/mL
Isolates resistant to rifaximin, based on MIC values (C difficile isolates [1]; 110 C difficile isolates from multiple locations): 2.7%
MIC50 (C difficile isolates [1]; [4]): 0.0075 µg/mL
MIC90 (C difficile isolates [1]; [4]): 0.015 µg/mL
MIC50 (C difficile isolates [2]; 1992 to 2007): 0.008 µg/mL
MIC90 (C difficile isolates [2]; 1992 to 2007): 0.015 µg/mL
Isolates with MIC values >2 μg/mL (C difficile isolates [2]): 4%
